In one series the target is T1, Cytochrome P450 1B1 (Homo sapiens, UniProt Q16678).
T1 sequence (Q16678 whole entry): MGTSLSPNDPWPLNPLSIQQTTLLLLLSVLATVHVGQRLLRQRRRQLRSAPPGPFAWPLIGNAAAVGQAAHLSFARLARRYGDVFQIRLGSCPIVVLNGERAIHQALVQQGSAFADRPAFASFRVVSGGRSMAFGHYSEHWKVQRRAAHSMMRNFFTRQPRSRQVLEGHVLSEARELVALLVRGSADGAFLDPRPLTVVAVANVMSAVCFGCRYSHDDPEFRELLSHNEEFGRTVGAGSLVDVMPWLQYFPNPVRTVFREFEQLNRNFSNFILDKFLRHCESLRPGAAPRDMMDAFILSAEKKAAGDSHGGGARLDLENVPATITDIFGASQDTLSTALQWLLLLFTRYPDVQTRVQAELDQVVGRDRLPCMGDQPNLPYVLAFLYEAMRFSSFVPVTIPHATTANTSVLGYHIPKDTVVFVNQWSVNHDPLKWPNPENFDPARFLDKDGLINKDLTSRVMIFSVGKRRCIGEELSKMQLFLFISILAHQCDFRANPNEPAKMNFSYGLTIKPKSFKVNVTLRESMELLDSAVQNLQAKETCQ
As to the kind of experiment: Inhibition of recombinant human CYP1B1 incubated for 45 mins using 7-ethyl-O-resorufin substrate in presence of NADPH regenerating system by fluorescence based ethoxyresorufin-O-deethylase assay.

In series [1] the target is T2, CYP1B1 (Homo sapiens, UniProt Q16678).
T2 sequence (Q16678 whole entry): T1 sequence (Q16678 whole entry)
As to the kind of experiment: Inhibition of recombinant human CYP1B1 at 3 uM incubated for 45 mins using 7-ethyl-O-resorufin substrate in presence of NADPH regenerating system by fluorescence based ethoxyresorufin-O-deethylase assay. Particulars: recombinant human CYP1B1, probe 7-ethyl-O-resorufin (7-ethoxyresorufin).

The target of another series is T3, Cytochrome P450 1A1 (Homo sapiens, UniProt P04798).
T3 sequence (P04798 whole entry): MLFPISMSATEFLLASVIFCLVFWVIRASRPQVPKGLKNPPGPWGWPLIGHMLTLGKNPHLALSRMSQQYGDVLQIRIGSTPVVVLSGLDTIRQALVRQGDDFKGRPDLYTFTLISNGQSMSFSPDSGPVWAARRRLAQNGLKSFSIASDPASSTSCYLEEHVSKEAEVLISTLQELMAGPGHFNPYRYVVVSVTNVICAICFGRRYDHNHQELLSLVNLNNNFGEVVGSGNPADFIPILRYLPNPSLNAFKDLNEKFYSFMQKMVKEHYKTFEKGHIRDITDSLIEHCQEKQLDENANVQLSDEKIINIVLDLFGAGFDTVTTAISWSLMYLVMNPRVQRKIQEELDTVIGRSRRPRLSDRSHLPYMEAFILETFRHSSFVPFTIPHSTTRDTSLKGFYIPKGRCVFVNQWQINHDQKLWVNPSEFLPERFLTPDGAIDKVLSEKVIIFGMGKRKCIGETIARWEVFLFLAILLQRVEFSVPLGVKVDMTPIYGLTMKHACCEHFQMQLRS
As to the kind of experiment: Inhibition of recombinant human CYP1A1 incubated for 25 mins using 7-ethyl-O-resorufin substrate in presence of NADPH regenerating system by fluorescence based ethoxyresorufin-O-deethylase assay. The class given is ADME.

For the next series, the species on record is Homo sapiens. As to the kind of experiment: Selectivity index, ratio of IC50 for inhibition of recombinant human CYP1A1 to IC50 for inhibition of recombinant human CYP1B1.
In series [2] the target is T2, CYP1B1. The series can be described thus: Inhibition of recombinant human CYP1B1 at 0.3 uM incubated for 45 mins using 7-ethyl-O-resorufin substrate in presence of NADPH regenerating system by fluorescence based ethoxyresorufin-O-deethylase assay. The following applies: recombinant human CYP1B1, probe 7-ethyl-O-resorufin (7-ethoxyresorufin).
For series [3], the target named is T4, CYP1A1 (Homo sapiens, UniProt P04798).
T4 sequence (P04798 whole entry): T3 sequence (P04798 whole entry)
As to the kind of experiment: Inhibition of recombinant human CYP1A1 at 3 uM incubated for 25 mins using 7-ethyl-O-resorufin substrate in presence of NADPH regenerating system by fluorescence based ethoxyresorufin-O-deethylase assay. The following applies: recombinant human CYP1A1, probe 7-ethyl-O-resorufin (7-ethoxyresorufin). The class given is ADME.

The target in series [4] is T4, CYP1A1. As to the kind of experiment: Inhibition of recombinant human CYP1A1 at 0.3 uM incubated for 25 mins using 7-ethyl-O-resorufin substrate in presence of NADPH regenerating system by fluorescence based ethoxyresorufin-O-deethylase assay. The class given is ADME. Particulars: recombinant human CYP1A1, probe 7-ethyl-O-resorufin (7-ethoxyresorufin).

For `C#C[C@]1(O)CC[C@H]2[C@@H]3CCc4cc(O)c(-c5ccc(OC)cc5)cc4[C@H]3CC[C@@]21C`, the IC50 (commonly the concentration at which inhibition is half-maximal) on Cytochrome P450 1B1 amounted to 370 nM; at Cytochrome P450 1A1, 9200 nM. Moreover, at CYP1B1 [1], the inhibition (commonly the change of the read-out against control, counted positive when it falls) at 0.75 h, 3 µM was 94%. In the series listed under Homo sapiens, the Ratio IC50 amounted to 25. Besides, the inhibition at 0.75 h, 0.3 µM at CYP1B1 [2] amounted to 58%. Moreover, the inhibition at 25 min, 3 µM on CYP1A1 [3] amounted to 23%. The inhibition at 25 min, 0.3 µM on CYP1A1 [4] is 7%.
`O=c1cc(-c2ccccc2)oc2c1ccc1ccccc12` [ALPHA-NAPHTHOFLAVONE]: the inhibition at 0.75 h, 3 µM on CYP1B1 [1] was determined as 101%. On Cytochrome P450 1A1, the IC50 came to 2700 nM. In addition, on CYP1A1 [3], the inhibition at 25 min, 3 µM is 75%. The inhibition at 25 min, 0.3 µM at CYP1A1 [4] was 30%.
Regarding `C[C@]12CC[C@@H]3c4cc(-c5ccncc5)c(O)cc4CC[C@H]3[C@@H]1CC[C@@H]2O`, the results for the IC50 on Cytochrome P450 1B1 and on Cytochrome P450 1A1 were 240 nM and 3900 nM, respectively. In addition, the inhibition at 0.75 h, 3 µM on CYP1B1 [1] was determined as 102%. Moreover, the Ratio IC50 in the series filed under Homo sapiens was 16. Besides, the inhibition at 25 min, 3 µM at CYP1A1 [3] turned out to be 14%. Moreover, the inhibition at 25 min, 0.3 µM on CYP1A1 [4] came to 5%.
With `C[C@]12CC[C@@H]3c4cc(-c5ccc(F)cc5)c(O)cc4CC[C@H]3[C@@H]1CC[C@@H]2O`, the IC50 on Cytochrome P450 1B1 came out at 240 nM; at Cytochrome P450 1A1, 4900 nM. Also, at CYP1B1 [1], the inhibition at 0.75 h, 3 µM was 103%. For the same compound, in the series listed under Homo sapiens, the Ratio IC50 came out at 20. Further, the inhibition at 0.75 h, 0.3 µM at CYP1B1 [2] came out at 91%. Besides, the inhibition at 25 min, 3 µM on CYP1A1 [3] stood at 0%. In addition, the inhibition at 25 min, 0.3 µM on CYP1A1 [4] came out at 3%.
Take `COc1ccc(-c2cc3c(cc2O)CC[C@@H]2[C@@H]3CC[C@]3(C)C(=O)CC[C@@H]23)cc1`: at CYP1B1 [1], the inhibition at 0.75 h, 3 µM worked out at 103%. For the same compound, the inhibition at 0.75 h, 0.3 µM at CYP1B1 [2] amounted to 95%. The inhibition at 25 min, 3 µM at CYP1A1 [3] came out at 18%. In addition, the inhibition at 25 min, 0.3 µM on CYP1A1 [4] was found to be 8%.
Taken in the same sequence, the figures for `COc1ccc(-c2cc3c(cc2OC)CC[C@@H]2[C@@H]3CC[C@@]3(C)[C@H]2CC[C@]3(C)O)cc1` were 46%, 8%, 6% and 2%.
